Our source for the IC50 values is US20250340565A1, “CD73 INHIBITOR COMPOUNDS” (AdoRx Therapeutics Limited, priority 2022, published 2025).

Structures can show the parent of a compound that is named as a salt.

The target in assay [1] is human (h)CD73 (amino acids Trp27-Lys547) (Homo sapiens, UniProt P21589). Description: CD73 inhibition assay (Malachite Green phosphate detection). The class given is biochemical. The note with it: 250 pM hCD73, 12.5 μM AMP, 20 min pre-incubation, absorbance 620 nm. The procedure:
Compound inhibition of human (h)CD73 (amino acids Trp27-Lys547, R&D Systems 5795-EN-500) enzymatic activity was tested via the Malachite Green Phosphate Detection Kit (R&D DY996). Experiments were performed in 20 μL Tris buffer (25 mM Tris pH 7.5, 5 mM MgCl2, 0.002% Tween20), with 250 pM of hCD73. Test compounds of interest were prepared in a threefold serial dilution in DMSO and added to the assay to give the appropriate final concentration, with the assay DMSO concentration being 1%. Compounds were pre-incubated for 20 minutes with hCD73 in a 384 well clear plate (Greiner 781101), followed by the addition of adenosine monophosphate (AMP) to 12.5 μM. The enzymatic reaction was carried out for 20 min at room temperature. 5 μL of Malachite kit reagent A was added to stop the reaction (contains 3M H2SO4) and after 10 min, 5 μL of Malachite kit reagent B was added (Malachite Green). After 30 min, absorbance at 620 nm was read on a BMG Pherastar FSX.
Data were normalised to measurements in the absence of competing compound (0% inhibition) and in the presence of 10 μM control compound (100% inhibition).

Assay [2] has as its target CD73 activity in U138-MG cells (Homo sapiens (Human), UniProt P21589). Description: U138-MG inhibition assay (inorganic phosphate from AMP, PiColorLock Gold). The class given is cell-based. The note with it: 100 μM AMP, 30 min pre-incubation, 1 hour at 37° C. The procedure:
U138-MG cells from ATCC are cultured in DMEM (Gibco 31966) with 10% FBS. Cells are seeded into 96-well culture plates (5,000 cell/well) in 100 μL of media for 24 hr. Cells are washed twice with 200 μL of assay buffer (20 mM HEPES, pH 7.4; 137 mM NaCl; 5.4 mM KCl; 1.3 mM CaCl2; 4.2 mM NaHCO3; 1 mg/mL glucose) to remove residual inorganic phosphate. CD73 inhibitor is added to each well in 100 μl volume and preincubated for 30 mins at 37° C. An equal volume of AMP substrate (Sigma A1572) is added to each well at a final concentration of 100 μM and incubated at 37° C. for 1 hour. Control wells containing cells but lacking added AMP, define the assay signal equivalent to 100% inhibition of CD73 activity. Supernatant is removed for measurement of inorganic phosphate using the PiColorLock Gold kit (Abcam, ab 270004).
The IC50 values of test compounds are determined as the inflection point of the sigmoidal concentration response curve.

Another assay concerns the target CD73 in whole blood (Homo sapiens (Human), UniProt P21589). Description: Whole blood AMP Glo assay. The class given is cell-based. Conditions: whole blood of healthy volunteers, 10 μM AMP, 30 min pre-incubation, 15 min at 37° C., levamisole 1.5 mM. The procedure: Blood is drawn from healthy volunteers by venepuncture and anti-coagulated with Lithium Heparin (10 IU/mi). 150 μl of blood is added to U-bottom polypropylene 96-well assay plates pre-filled with 20 μl of compound dilutions prepared in RPMI also containing the Tissue Non-specific Alkaline Phosphatase inhibitor Levamisole (final assay concentration 1.5 mM). Control wells to define uninhibited CD73 contain DMSO in place of compound. Control wells to define complete stabilization of AMP attributable to CD73 contain LY3475070 (CAS: 2375815-63-5) at 30 μM final assay concentration.
Compounds are pre-incubated with whole blood at 37° C. for 30 minutes. Following this, AMP is added in a 30 μl volume for a final assay concentration of 10 μM, mixed, and the plates are incubated for 15 minutes at 37° C. Final DMSO concentration/well is 0.6% and final volume/well is 200 μL. After incubating with AMP, the plates are placed on ice and then centrifuged at 2000 g for 10 minutes at 4° C. Plasma is removed and then diluted 1:10 with pre-chilled HBSS (Ca2+& Mg2+free) and kept on ice.
The stabilized AMP concentration in diluted plasma is measured using AMP-Glo kit (Promega), in parallel with a standard curve of known AMP concentrations, with a final volume of 40 μl in white flat bottom half-well 96-well plates (Corning). Signal is measured by Luminescence. The IC50 values of test compounds are determined as the inflection point of the sigmoidal concentration response curve.

CD73 activity in U138-MG cells, sequence (P21589 27-574): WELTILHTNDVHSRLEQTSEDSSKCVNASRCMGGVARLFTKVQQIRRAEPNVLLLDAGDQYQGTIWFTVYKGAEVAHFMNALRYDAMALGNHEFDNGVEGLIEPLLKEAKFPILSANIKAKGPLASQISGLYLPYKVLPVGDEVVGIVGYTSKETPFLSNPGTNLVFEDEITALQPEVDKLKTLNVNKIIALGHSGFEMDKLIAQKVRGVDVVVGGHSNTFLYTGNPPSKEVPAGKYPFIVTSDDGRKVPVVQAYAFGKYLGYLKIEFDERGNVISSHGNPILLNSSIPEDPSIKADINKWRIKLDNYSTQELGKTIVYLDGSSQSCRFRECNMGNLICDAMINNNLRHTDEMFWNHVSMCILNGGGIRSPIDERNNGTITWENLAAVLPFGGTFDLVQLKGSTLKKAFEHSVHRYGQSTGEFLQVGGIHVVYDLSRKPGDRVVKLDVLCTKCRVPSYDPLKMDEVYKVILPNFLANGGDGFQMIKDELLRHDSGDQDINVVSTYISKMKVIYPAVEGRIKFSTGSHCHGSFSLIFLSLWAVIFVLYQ
CD73 in whole blood, sequence (P21589 27-574): as above

Broadly, the IC50 is the concentration that inhibits the measured activity by half. A high value points to lower potency. `CC1(C)CN(c2ncnc3sc(-c4c[nH]c(=O)[nH]c4=O)cc23)CC1(F)F` [Example 4, 5-[4-(3,3-Difluoro-4,4-dimethyl-pyrrolidin-1-yl)thieno[2,3-d]pyrimidin-6-yl]-1H-pyrimidine-2,4-dione]: the IC50 came to 87.3 nM in assay [1], 734 nM in assay [2] and 4010 nM against CD73 in whole blood.
As for `O=C1N=CC(c2cc3c(N4CCC(OCCN5CCCCC5)C4)nc(Cl)nn3c2)C(=O)N1` (stereo not drawn) [Example 18, 5-[2-Chloro-4-[3-[2-(1-piperidyl)ethoxy]pyrrolidin-1-yl]pyrrolo[2,1-f][1,2,4]triazin-6-yl]-5H-pyrimidine-2,4-dione], the IC50 was 62.5 nM in assay [1], 91.1 nM in assay [2] and 118 nM on CD73 in whole blood.
On the same counts, the results for `O=c1[nH]cc(-n2cc3c(N4CC(F)(F)C5(CCC5)C4)ncnc3n2)c(=O)[nH]1` [Example 13.2, 5-[4-(8,8-Difluoro-6-azaspiro[3.4]octan-6-yl)pyrazolo[3,4-d]pyrimidin-2-yl]-1H-pyrimidine-2,4-dione] are 60.7 nM, 2.1 nM and 1.13 nM.
Turning to `O=c1[nH]cc(-c2cc3c(N4CCC(OCCO)C4)ncnc3s2)c(=O)[nH]1` (stereo not drawn) [Example 1.3, 5-[4-[3-(2-Hydroxyethoxy)pyrrolidin-1-yl]thieno[2,3-d]pyrimidin-6-yl]-1H-pyrimidine-2,4-dione], the IC50 is 489 nM in assay [1], 717 nM in assay [2] and 3160 nM against CD73 in whole blood.
Take `O=c1[nH]cc(-c2cc3c(N4CC(OCCN5CCCCC5)C(F)(F)C4)ncnc3s2)c(=O)[nH]1` (stereo not drawn) [Example 5, 5-[4-[3,3-Difluoro-4-[2-(1-piperidyl)ethoxy]pyrrolidine-1-yl]thieno[2,3-d]pyrimidin-6-yl]-1H-pyrimidine-2,4-dione formate salt]: the figures for the IC50 (in assay [1]; in assay [2]; on CD73 in whole blood) were 32 nM, 179 nM and 184 nM, respectively.
For the compound `O=c1[nH]cc(-c2cc3c(N4CC(F)(F)C5(CCC5)C4)ncnc3o2)c(=O)[nH]1` [Example 19, 5-[4-(8,8-Difluoro-6-azaspiro[3.4]octan-6-yl)furo[2,3-d]pyrimidin-6-yl]-1H-pyrimidine-2,4-dione], the IC50 came to 58.2 nM in assay [1], 68.7 nM in assay [2] and 1240 nM on CD73 in whole blood.
Take `CC1(C)CCN(c2ncnc3sc(-c4c[nH]c(=O)[nH]c4=O)cc23)C1` [Example 2.1, 5-[4-(3,3-Dimethylpyrrolidin-1-yl)thieno[2,3-d]pyrimidin-6-yl]-1H-pyrimidine-2,4-dione]: the IC50 was found to be 401 nM in assay [1], 1120 nM in assay [2] and 6990 nM at CD73 in whole blood.
As to `O=c1[nH]cc(-c2cc3c(N4CC(OCCN5CCCCC5)C(F)(F)C4)ncnn3c2)c(=O)[nH]1` (stereo not drawn) [Example 17, 5-[4-[3,3-Difluoro-4-[2-(1-piperidyl)ethoxy]pyrrolidin-1-yl]pyrrolo[2,1-f][1,2,4]triazin-6-yl]-1H-pyrimidine-2,4-dione formate salt], the IC50 in assay [1] was found to be 59.4 nM; in assay [2], 108 nM; against CD73 in whole blood, 119 nM.
For the compound `N#Cc1cnc2sc(-c3c[nH]c(=O)[nH]c3=O)cc2c1N1CCC(OCCN2CCCCC2)C1` (stereo not drawn) [Example 11, 2-(2,4-Dioxo-1H-pyrimidin-5-yl)-4-[3-[2-(1-piperidyl)ethoxy]pyrrolidin-1-yl]thieno[2,3-b]pyridine-5-carbonitrile], the IC50 in assay [1] amounted to 103 nM; in assay [2], 246 nM; at CD73 in whole blood it was 686 nM.
On the same counts, the results for `CC1(C)CN(c2ncnn3cc(-c4c[nH]c(=O)[nH]c4=O)cc23)CC1(F)F` [Example 10.2, 5-[4-(3,3-Difluoro-4,4-dimethyl-pyrrolidin-1-yl)pyrrolo[2,1-f][1,2,4]triazin-6-yl]-1H-pyrimidine-2,4-dione] are 130 nM, 312 nM and 1590 nM.
On to `O=c1[nH]cc(-n2cc3c(N4CC(F)(F)C(F)(F)C4)ncnc3n2)c(=O)[nH]1` [Example 13.8, 5-[4-(3,3,4,4-Tetrafluoropyrrolidin-1-yl)pyrazolo[3,4-d]pyrimidin-2-yl]-1H-pyrimidine-2,4-dione], for which the IC50 in assay [1] was 47.6 nM; in assay [2] it was 12.1 nM; against CD73 in whole blood it was 1.5 nM.
Consider `O=c1[nH]cc(-c2cc3c(N4CCC(OCCN5CCCCC5)C4)ccnc3s2)c(=O)[nH]1` (stereo not drawn) [Example 14, 5-[4-[3-[2-(1-Piperidyl)ethoxy]pyrrolidin-1-yl]thieno[2,3-b]pyridin-2-yl]-1H-pyrimidine-2,4-dione], for which the IC50 in assay [1] amounted to 62.8 nM; in assay [2], 177 nM; against CD73 in whole blood, 549 nM.
For the compound `CCC1(C)CCN(c2ncnc3nn(-c4c[nH]c(=O)[nH]c4=O)cc23)C1` (stereo not drawn) [Example 13.5, 5-[4-(3-Ethyl-3-methyl-pyrrolidin-1-yl)pyrazolo[3,4-d]pyrimidin-2-yl]-1H-pyrimidine-2,4-dione], the IC50 came to 84.7 nM in assay [1], 10.5 nM in assay [2] and 2.12 nM at CD73 in whole blood.
The like results for `O=c1[nH]cc(-n2cc3c(N4CCC(OCCN5CCCCC5)C4)ncnc3n2)c(=O)[nH]1` (stereo not drawn) [Example 12, 5-[4-[3-[2-(1-Piperidyl)ethoxy]pyrrolidin-1-yl]pyrazolo[3,4-d]pyrimidin-2-yl]-1H-pyrimidine-2,4-dione hydrochloride] were, in that order, 33.7 nM, 2.7 nM and 0.6 nM.
Turning to `CC1(C)CN(c2nccn3nc(-c4c[nH]c(=O)[nH]c4=O)cc23)CC1(F)F` [Example 25, 5-[4-(3,3-Difluoro-4,4-dimethyl-pyrrolidin-1-yl)pyrazolo[1,5-a]pyrazin-2-yl]-1H-pyrimidine-2,4-dione], the IC50 in assay [1] was determined as 34.2 nM; in assay [2], 38.6 nM; against CD73 in whole blood, 155 nM.
Regarding `O=c1[nH]cc(-c2cc3c(N4CC(F)(F)C5(CC5)C4)ncnc3o2)c(=O)[nH]1` [Example 19.3, 5-[4-(7,7-Difluoro-5-azaspiro[2.4]heptan-5-yl)furo[2,3-d]pyrimidin-6-yl]-1H-pyrimidine-2,4-dione], the IC50 in assay [1] turned out to be 137 nM; in assay [2] it was 28.3 nM; on CD73 in whole blood, 652 nM.
In the case of `O=c1[nH]cc(-n2cc3c(N4C[C@H]5COC[C@H]5C4)ncnc3n2)c(=O)[nH]1` [Example 13.9, 5-[4-[(3aR,6aS)-1,3,3a,4,6,6a-Hexahydrofuro[3,4-c]pyrrol-5-yl]pyrazolo[3,4-d]pyrimidin-2-yl]-1H-pyrimidine-2,4-dione], the figures for the IC50 (in assay [1]; in assay [2]; on CD73 in whole blood) were 303 nM, 49.2 nM and 5.5 nM, respectively.
As for `CC1(C)CN(c2ncc(C(F)(F)F)n3nc(-c4c[nH]c(=O)[nH]c4=O)cc23)CC1(F)F` [Example 25.9, 5-[4-(3,3-difluoro-4,4-dimethyl-pyrrolidin-1-yl)-7-(trifluoromethyl)pyrazolo[1,5-a]pyrazin-2-yl]-1H-pyrimidine-2,4-dione], the IC50 was determined as 58 nM in assay [1], 22 nM in assay [2] and 18000 nM against CD73 in whole blood.
Consider `O=c1[nH]cc(-c2cc3c(N4CCC(CCO)C4)ncnc3s2)c(=O)[nH]1` (stereo not drawn) [Example 1.1, 5-[4-[3-(2-Hydroxyethyl)pyrrolidin-1-yl]thieno[2,3-d]pyrimidin-6-yl]-1H-pyrimidine-2,4-dione], for which the IC50 in assay [1] was 677 nM; in assay [2] it was 2310 nM; against CD73 in whole blood it was 8760 nM.
